Here are results for one molecule from patent US20040121474A1, “Detection and evaluation of chemically-mediated and ligand-mediated t-cell activation using optophoretic analysis” (Genoptix, Inc, priority 2002, published 2004).

For test [1], the system named is U937 cells. As to the kind of experiment: Escape velocity, effect of camptothecin on U937 cells. The conditions noted are these: camptothecin-treated U937 cells. The format is cell-based. How it is done:
The objective of this experiment is to test the effects of camptothecin on the escape velocities of U937 cells. Camptothecin inhibits DNA topoisomerase I and induces apoptosis. A control and three concentrations of camptothecin were tested: […]. After adding the camptothecin, the flasks are incubated at 37° C. 5% CO2.
At the timepoints of 4 hours and 6 hours, 200 μl of cells are spun for 5 minutes at 5000 rpm. The cells are then resuspended in […] PBS/1% BSA and […] trypan blue.
Optophoretic techniques have been investigated for their potential to detect the early onset of apoptosis in mammalian cells. U.S. patent application Ser. No. 10,240,611, for example, discloses multiple experiments in which U937 cells were treated with camptothecin and subsequently monitored Optophoretically using measured escape velocities. In one experiment, the escape velocity of the camptothecin-treated cells were measured at 4 and 6 hours after treatment. Noticeable changes in escape velocity were seen as early as 4 hours after treatment (see, e.g., FIG. 34). In that experiment, U937 cells were treated with 4 μg/ml of camptothecin and resuspended in PBS/1% BSA. Escape velocity measurements were taken after 4 and 6 hours. Table 18, reproduced below, includes the results of the escape velocity measurements for the test cells as well as the controls.

In test [2] the test system is CEM/C2. The conditions noted are these: CEM/C2 cell line obtained from ATCC; cited from earlier work.

`CC[C@@]1(O)C(=O)OCc2c1cc1n(c2=O)Cc2cc3ccccc3nc2-1` [Camptothecin]: the “time after treatment at which noticeable changes in escape velocity were seen” value in test [1] was ≤ 4 h. In addition, the “less sensitive than parental cell line CCRF-CEM” value in test [2] is 970 fold.
